Biological target: T1, human DPP-IV (Homo sapiens, UniProt P27487)
T1 construct: made in house; host or cells: Pichia pastoris (secreted, purified from culture medium)
Test: DPP-IV activity assay (fluorogenic or colorimetric substrate)
Assay type: biochemical
Details: natural human DPP-IV from human plasma pool or recombinant human DPP-IV; 37° C., pH 7.8
Method: Activity of DPP-IV inhibitors are tested with natural human DPP-IV derived from a human plasma pool or with recombinant human DPP-IV. Human citrate plasma from different donors is pooled, filtered through a 0.2 micron membrane under sterile conditions and aliquots of 1 ml are shock frozen and stored at −120° C. until used. In the colorimetric DPP-IV assay 5 to 10 μl human plasma and in the fluorometric assay 1.0 μl of human plasma in a total assay volume of 100 μl is used as an enzyme source. The cDNA of the human DPP-IV sequence of amino acid 31- to 766, restricted for the N-terminus and the transmembrane domain, is cloned into Pichia pastoris. Human DPP-IV is expressed and purified from the culture medium using conventional column chromatography including size exclusion and anion and cation chromatography. The purity of the final enzyme preparation of Coomassie blue SDS-PAGE is >95%. In the colorimetric DPP-IV assay 20 ng rec.-h DPP-IV and in the fluorometric assay 2 ng rec-h DPP-IV in a total assay volume of 100 μl is used as an enzyme source.
In the fluorogenic assay Ala-Pro-7-amido-4-trifluoromethylcoumarin (Calbiochem No 125510) is used as a substrate. A 20 mM stock solution in 10% DMF/H2O is stored at −20° C. until use. In IC50 determinations a final substrate concentration of 50 μM is used. In assays to determine kinetic parameters as Km, Vmax, Ki, the substrate concentration is varied between 10 μM and 500 μM.
In the colorimetric assay H-Ala-Pro-pNA.HCl (Bachem L-11115) is used as a substrate. A 10 mM stock solution in 10% MeOH/H2O is stored at −20° C. until use. In IC50 determinations a final substrate concentration of 200 μM is used. In assays to determine kinetic parameters as Km, Vmax, Ki, the substrate concentration is varied between 100 μM and 2000 μM.
Fluorescence is detected in a Perkin Elmer Luminescence Spectrometer LS 50B at an excitation wavelength of 400 nm and an emission wavelength of 505 nm continuously every 15 seconds for 10 to 30 minutes. Initial rate constants are calculated by best fit linear regression.
The absorption of pNA liberated from the colorimetric substrate is detected in a Packard SpectraCount at 405 nm continuously every 2 minutes for 30 to 120 minutes. Initial rate constants are calculated by best fit linear regression.
DPP-IV activity assays are performed in 96 well plates at 37° C. in a total assay volume of 100 μl. The assay buffer consists of 50 mM Tris/HCl, pH 7.8 containing 0.1 mg/ml BSA and 100 mM NaCl. […]
IC50 determinations of test compounds are calculated by non-linear best fit regression of the DPP-IV inhibition of at least 5 different compound concentrations. Kinetic parameters of the enzyme reaction are calculated at least 5 different substrate concentrations and at least 5 different test compound concentrations.

T1 sequence (P27487 31-766): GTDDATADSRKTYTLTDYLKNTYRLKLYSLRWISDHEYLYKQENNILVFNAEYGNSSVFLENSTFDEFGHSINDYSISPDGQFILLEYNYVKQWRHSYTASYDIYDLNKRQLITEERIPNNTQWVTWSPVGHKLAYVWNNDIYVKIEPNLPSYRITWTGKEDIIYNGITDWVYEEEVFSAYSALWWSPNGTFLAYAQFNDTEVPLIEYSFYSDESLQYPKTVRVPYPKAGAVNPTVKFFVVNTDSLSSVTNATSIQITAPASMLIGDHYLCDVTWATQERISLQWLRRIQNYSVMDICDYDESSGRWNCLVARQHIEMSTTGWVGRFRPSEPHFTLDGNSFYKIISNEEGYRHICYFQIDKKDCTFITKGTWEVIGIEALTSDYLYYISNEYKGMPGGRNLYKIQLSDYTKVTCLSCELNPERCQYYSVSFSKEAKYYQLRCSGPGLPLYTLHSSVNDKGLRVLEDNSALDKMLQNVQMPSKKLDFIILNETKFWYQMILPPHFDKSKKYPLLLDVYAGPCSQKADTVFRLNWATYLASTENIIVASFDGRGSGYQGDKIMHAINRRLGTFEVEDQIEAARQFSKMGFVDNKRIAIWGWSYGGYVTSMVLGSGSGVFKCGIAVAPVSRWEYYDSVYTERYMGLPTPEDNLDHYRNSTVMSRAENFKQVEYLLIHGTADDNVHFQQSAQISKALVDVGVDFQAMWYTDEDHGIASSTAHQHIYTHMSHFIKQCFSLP

| Compound | IC50 [nM] |
| --- | --- |
| N[C@@H]1CCCCC[C@H]1c1cc(Cl)ccc1Cl (relative stereo) [Example 24, (trans)-2-(2,5-Dichloro-phenyl)-cycloheptylamine] | 720 |
| CC1=CC(=O)N([C@@H]2CCCC[C@H]2N)C1 (relative stereo) [Example 30, trans-1-(2-Amino-cyclohexyl)-4-methyl-1,5-dihydro-pyrrol-2-one] | 730 |
| N[C@@H]1CCCC[C@@H]1c1cc(Cl)ccc1Cl (relative stereo) [Example 7, (cis)-2-(2,5-Dichloro-phenyl)-cyclohexylamine] | 130 |
| Cc1ccc(C)c([C@@H]2CCCC[C@H]2N)c1 (relative stereo) [Example 18, (trans)-2-(2,5-Dimethyl-phenyl)-cyclohexylamine] | 160 |

From patent publication US7411093B2, “Aminocycloalkanes as DPP-IV inhibitors” (Hoffman-La Roche Inc., priority 2004, dated 2008)
